# Data taken from patent US4190575A, “Polypeptides related to somatostatin” (American Home Products Corporation, priority 1977, dated 1980).
# Where two headings read alike, the source gives them in different places. Bridge positions count the residues as written; N and C are the ends. Square brackets hold non-standard residues; d marks the D form. Peptide text beside a SMILES is read from it.
# Columns and labels:
# Format in all cases: in vivo
# glucagon = assay: Arginine-stimulated glucagon in Nembutal-treated rats, radioimmunoassay; details: for Glucagon: albino male rats, *p<0.01
# Experimental: (§1) The biological activity of the peptides of Examples 2 and 4 were determined by the following procedure:
# (§2) Albino male rats are administered Nembutal intraperitoneally at a dose of 50 milligrams per kilogram. Fifteen minutes later a subcutaneous injection of the test compound of physiological saline is administered. Ten minutes later 0.5 milliliters of arginine (300 milligrams per milliliter, pH 7.2) is injected into the heart. Five minutes after receipt of the arginine the rats are decapitated and blood is collected into trasylol-EDTA. An appropriate aliquot is assayed for growth hormone (GH), insulin, and glucagon by radioimmunoassay.
# insulin = assay: Arginine-stimulated insulin in Nembutal-treated rats, radioimmunoassay; set-up: effect on insulin levels: dose or concentration left out as unconfirmed; details: for Insulin: albino male rats
# Experimental: as §1, §2
# growth hormone (GH) = assay: Arginine-stimulated growth hormone (GH) in Nembutal-treated rats, radioimmunoassay; set-up: GH: reference not given here; details: for GH: albino male rats, *p<0.01
# Experimental: as §1, §2
# GH secretion = assay: Duration of effect on GH secretion in rats treated with Nembutal; set-up: duration of significant inhibition of GH: dose or concentration left out as unconfirmed
# Experimental: The peptides of Examples 2 and 4 were also tested for duration of their effect on GH secretion in rats treated with Nembutal.
# [1] = dose 200 ug/kg subcutaneous, blood 15 min after compound, 5 min after arginine
# [2] = dose 200 ug/kg subcutaneous, blood 15 min after compound, 5 min after arginine, *p<0.01
Compound,reducing glucagon (glucagon),Glucagon (glucagon; dose 50 ug/kg subcutaneous),Glucagon (glucagon; [1]),Insulin (insulin; dose 50 ug/kg subcutaneous),Insulin (insulin; [2]),effect on insulin levels (insulin; dose of 50),GH (growth hormone (GH); dose 50 ug/kg subcutaneous),GH (growth hormone (GH); [1]),reducing growth hormone (growth hormone (GH); dose of 50 mg/kg),inhibition of GH at 2 and 4 hours (GH secretion; at 2 and 4 hours),duration of significant inhibition of GH (GH secretion; (S.C.)),Glucagon (glucagon; dose 40 ug/kg subcutaneous),reducing glucagon (glucagon; dose of 40 mg/kg),Insulin (insulin; dose 40 ug/kg subcutaneous),effect on insulin levels (insulin; dose of 40),GH (growth hormone (GH); dose 40 ug/kg subcutaneous),reducing growth hormone (growth hormone (GH); dose of 40 mg/kg)
"C[C@@H](O)[C@@H]1NC(=O)[C@H](Cc2ccccc2)NC(=O)[C@H]([C@@H](C)O)NC(=O)[C@H](CCCCN)NC(=O)[C@@H](Cc2c[nH]c3ccccc23)NC(=O)[C@H](Cc2ccccc2)NC(=O)[C@H](Cc2ccccc2)NC(=O)[C@H](CCC(=O)O)NC(=O)[C@H](Cc2c[nH]cn2)NC(=O)[C@@H](N)CSSC[C@@H](C(=O)O)NC(=O)[C@H](CO)NC1=O [Example 4, L-Cysteinyl-L-histidyl-L-glutamyl-L-phenylalanyl-L-phenylalanyl-D-tryptophyl-L-lysyl-L-threonyl-L-phenylalanyl-L-threonyl-L-seryl-L-cysteine cyclic (1-12) disulfide] (H-CHEFF[dW]KTFTSC-OH; disulfide 1-12)",effective agents for reducing growth hormone and glucagon,10 ± 4 pg/mL,4 ± 2 pg/mL,322 ± 40 μU/ml.,205 ± 36 μU/ml.,without materially affecting insulin levels,84 ± 17 ng/mL,107 ± 29 ng/mL,effective agents for reducing growth hormone,no significant inhibition of GH,–,–,–,–,–,–,–
tert-Butyloxycarbonyl-S-p-methoxybenzyl-L-cysteinyl-N^gn -tosyl-L-arginyl-γ-benzyl-L-glutamyl-L-phenylalanyl-L-phenylalanyl-D-tryptophyl-N^ε -2-chloro-benzyloxycarbonyl-L-lysyl-O-benzyl-L-threonyl-L-phenylalanyl-O-benzyl-L-threonyl-O-benzyl-L-seryl-S-p-methoxybenzyl-L-cysteine hydroxymethyl-polystyrene ester [Example 1],–,–,–,–,–,–,–,–,–,–,at least 4 hours,–,–,–,–,–,–
"C[C@@H](O)[C@@H]1NC(=O)[C@H](Cc2ccccc2)NC(=O)[C@H]([C@@H](C)O)NC(=O)[C@H](CCCCN)NC(=O)[C@@H](Cc2c[nH]c3ccccc23)NC(=O)[C@H](Cc2ccccc2)NC(=O)[C@H](Cc2ccccc2)NC(=O)[C@H](CCC(=O)O)NC(=O)[C@H](CCCNC(=N)N)NC(=O)[C@@H](N)CSSC[C@@H](C(=O)O)NC(=O)[C@H](CO)NC1=O [Example 2, L-Cysteinyl-L-arginyl-L-glutamyl-L-phenylalanyl-L-phenylalanyl-D-tryptophyl-L-lysyl-L-threonyl-L-phenylalanyl-L-threonyl-L-seryl-L-cysteine cyclic (1-12) disulfide] (H-CREFF[dW]KTFTSC-OH; disulfide 1-12)",–,–,1.5 ± 1 pg/mL,–,115 ± 16 μU/ml.,–,–,42 ± 6 ng/mL,–,–,–,12 ± 2 pg/mL,effective agents for reducing growth hormone and glucagon,158 ± 57 μU/ml.,without materially affecting insulin levels,28 ± 5 ng/mL,effective agents for reducing growth hormone
